Test: Odor detection threshold (ODT)
Settings: for ODT: Table 9
Source text: Within these defined water-release groups, odorants are then further described based on their experimentally determined odor detection thresholds (ODT) to further characterize the odor impact or olfactive intensity of a citrus and other olfactive types within the herein-described released group of odorants.
Upon their release in headspace, odorants are detected based on their odor detection threshold values. Odor detection thresholds are defined as the lowest concentration of odorants in a selected medium (air or water) to be detected. By including odor values of odorants in the model, one can further improve on the values for predicted performance of once odorants are released from the partition into the air.
Various databases for experimental odor detection threshold values in various partitions such as water and air are available. See Compilation of Odor and Taste Threshold Values Data, American Society for Testing and Materials, F. A. Fazzalari Editor; Booleans Aroma Chemical Information Service (BACIS)).

| Structure (SMILES) | ODT | odt (Table 11, in ppb) | odt (Table 13, in ppb) | odt (Table 15) | odt (Table 17) | odt (Table 13) | odt (Table 11) |
| --- | --- | --- | --- | --- | --- | --- | --- |
| C=CC(C)(O)CCC=C(C)CC (mixture of isomers) [ETHYL LINALOOL] | 120 ppb | 120.00 | 120.00 | 120 ppb | 440 ppb |  |  |
| CC1=CCC(C=CC(C)C(C)O)C1(C)C (stereo in doubt) [EBANOL] | 54 ppb | 54.00 | 54.00 |  |  |  |  |
| CCCCCCCCCCC=O [ALDEHYDE C11] |  |  |  |  |  | 7.7 ppb |  |
| CCCCCCCCCCCC=O [ALDEHYDE C12 (DODECANAL), DODECANAL] |  |  |  | 17 ppb | 17 ppb |  |  |
| CCCCCCCC=O [ALDEHYDE C 8 (OCTANAL), OCTANAL] |  |  |  | 4.8 ppb | 4.5 ppb |  |  |
| CCCCCCCCCC=O [ALDEHYDE C 10 (DECANAL), DECANAL] |  |  |  | 8.7 ppb | 6.7 ppb |  |  |
| C=CCOC(=O)CCC1CCCCC1 [ALLYL CYCLOHXYL PROPIONATE, ALLYL CYCLOHEXYL PROPIONATE] | 81 ppb | 81.00 | 61.00 |  |  |  |  |
| CCOC(=O)CC1(C)OCCO1 [APPLINAL] | 55 ppb | 55.00 | 55.00 |  |  |  |  |
| CCCCC/C=C\CCC=O [CIS 4 DECENAL] |  |  |  | 3.1 ppb | 3.1 ppb |  |  |
| CC/C=C\CCOC(C)=O [CIS-3-HEXENYL ACETATE] | 170 ppb | 170.00 | 170.00 | 170 ppb | 170 ppb |  |  |
| CC/C=C\CCOC(=O)c1ccccc1O [CIS-3-HEXENYL SALICYLATE] | 1.9 ppb |  |  | 1.9 ppb | 1.9 ppb | 1.8 ppb | 1.9 ppb |
| CC(C)=CCCC(C)=CC=O [CITRAL] |  | 12.00 | 12.00 |  |  |  |  |
| CC(C)=CCCC(C)CC=O (stereo not shown) [CITRONELLAL] |  | 33.00 | 33.00 | 33 ppb | 33 ppb |  |  |
| CC(C)=CCCC(C)CCO (stereo not shown) [CITRONELLOL] |  | 29.00 | 29.00 |  |  |  |  |
| CC(C)=CCCC(C)CC#N (stereo not shown) [CITRONELLYL NITRILE] | 71 ppb | 71.00 | 71.00 | 71 ppb | 71 ppb |  |  |
| C=CC(C)CCCC(C)(C)O (stereo not shown) [DIHYDROMYRCENOL] | 810 ppb | 819.00 | 810.00 | 810 ppb | 810 ppb |  |  |
| CCOC(=O)CC(C)=O [ETHYL ACETOACETATE] | 54 ppb | 55.00 | 55.00 |  |  |  |  |
| CCOC(=O)C(C)CC (stereo not shown) [Ethyl 2-methylbutyrate] | 20 ppb | 20.00 | 20.00 |  |  |  |  |
| CCC(C)C(=O)N(C)c1ccccc1 (stereo not shown) [GARDAMIDE] | 24 ppb | 24.00 | 24.00 | 24 ppb | 24 ppb |  |  |

| Structure (SMILES) | ODT | odt (Table 11, in ppb) | odt (Table 13, in ppb) | odt (Table 15) | odt (Table 17) | odt (Table 13) | odt (Table 11) |
| --- | --- | --- | --- | --- | --- | --- | --- |
| CCCCCCOC(C)=O [HEXYL ACETATE] | 950 ppb | 550.00 | 950.00 |  |  |  |  |
| CCCCCCCCCCCC#N [LAURONITRILE] |  |  |  |  |  | 6.7 ppb |  |
| CC1=CC(C)C(C=O)CC1 (stereo not shown) [LIGUSTRAL] |  | 110.00 | 110.00 | 110 ppb | 110 ppb |  |  |
| C=CC(C)(O)CCC=C(C)C (stereo not shown) [LINALOOL, linalool] |  |  |  | 20 ppb | 20 ppb |  |  |
| CCCCCCCCCC=CC=O [MANDARIN ALDEHYDE] |  |  |  |  |  | 1.5 ppb |  |
| CC(CC=O)CCc1ccccc1 (stereo not shown) [MEFRANAL] | 17 ppb | 17.00 | 17.00 | 17 ppb | 17 ppb |  |  |
| CC(C)=CCCC(C)C=O (stereo not shown) [MELONAL] |  |  |  | 1.5 ppb | 1.5 ppb |  |  |
| CCCCCC1C(=O)CCC1CC(=O)OC (stereo not shown) [METHYL DIHYDRO JASMONATE] | 0.23 ppb |  |  |  |  | 0.23 ppb | 0.23 ppb |
| CCCCCCC#CC(=O)OC [METHYL OCTINE CARBONATE] |  |  |  | 9.7 ppb | 8.7 ppb |  |  |
| CCC(CC)C(=O)N(C)c1cccc(C)c1 [PARADISAMIDE] |  |  |  | 0.6 ppb | 0.6 ppb | 0.8 ppb |  |
| CC1CC(C)(c2ccccc2)CO1 (stereo not shown) [RHUBAFURAN] |  | 440.00 | 440.00 | 440 ppb | 440 ppb |  |  |
| CC(C)CC1CCCC(C)(O)C1 (stereo not shown) [ROSSITOL] | 440 ppb | 440.00 | 440.00 | 440 ppb | 120 ppb |  |  |
| CC(=O)OC(C)c1ccccc1 (stereo not shown) [STRALLYL ACETATE, STYRALLYL ACETATE] |  |  |  | 110 ppb | 110 ppb |  |  |
| CCC(C)(O)CCCC(C)C (stereo not shown) [TETRAHYDROLINALOOL] | 380 ppb | 380.00 | 380.00 |  |  |  |  |
| CC/C=C\CC/C=C/C=O [TRANS 2 CIS 6 NONADENAL, TRANS 2 CIS 6 NONADIENAL] |  |  |  | 0.2 ppb | 0.2 ppb |  |  |
| CC/C=C\CC/C=C/CO [TRANS 2 CIS 6 NONADENOL, TRANS 2 CIS 6 NONADIENOL] |  |  |  | 1.5 ppb | 1.5 ppb |  |  |
| CCCCCCCCCCC=CC#N [TRIDECEN 2 NITRILE] |  |  |  | 8.7 ppb | 6.7 ppb |  |  |
| CCC=C(C)C(O)CCCCC (stereo not shown) [UNDECAVERTOL, 4-Methyl-3-decen-5-ol] |  |  |  | 28 ppb | 28 ppb |  |  |
| C=C(C)[C@H]1CC=C(C)CC1 [d-LIMONINE, d-1-Methyl-4-isopropenyl-1-cyclohexene] | 430 ppb | 430.00 | 430.00 | 430 ppb | 430 ppb |  |  |

Reference: US20100087351A1, “Perfumes for Linear Citrus Release in Rinse-Off Systems” (Quest International Services B.V., priority 2007, published 2010)
